Laboratory results: PubChem BioAssay AID1918956 (Molecular Pharmacology Branch, DTP, NCI, 2023)

System: OVCAR-5 complex spheroids, viability
Assay: Anticancer human tumor OVCAR-5 cell line growth inhibition;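 also: spheroids exposed to agents for seven days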;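 as to viability, T/C: 100% = DMSO vehicle control wells viability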
Conditions: for IC50: curve of first compound; for viability, T/C: stronger effect = lower value
Excerpt: Multicellular complex tumor spheroid response to LSD1 Inhibitor Iadademstat in combination with a variety of drugs and investigational agents in selected tumor cell lines
The current study was undertaken to assess response to LSD1 inhibitors in combination with standard-of-care drugs and investigational agents in solid tumor complex spheroid models as well as in the K-562 leukemia. Complex spheroids include a stromal component modeled by human endothelial cells (HUVEC) and fibroblasts modeled by human mesenchymal stem cells (MSCs). The concentration ranges selected for each drug and investigational agent were based upon clinically achievable concentrations if the clinical Cmax of the agent was known.
Compounds. The drugs and investigational agents used in this study are listed on Table 1. All of the agents used, including staurosporine (NSC755774) and gemcitabine (NSC613327), were obtained from the Developmental Therapeutics Program, NCI. FDA-approved anticancer drugs are available from the NCI at http://dtp.nci.nih.gov/branches/dscb/oncology_drugset_explanation.html. Drugs and investigational agents were >95% pure by proton nuclear magnetic resonance (NMR) and liquid chromatography/mass spectrometry (LC/MS). Stock solutions were prepared at 400x in DMSO, stored at -70 degrees C, and diluted in fresh medium prior to their use. The final concentration of DMSO in cell culture wells never exceeded 0.25% (v/v). The FDA-approved anticancer drug set is available from the Developmental Therapeutics Program at https://dtp.cancer.gov/organization/dscb/obtaining/available_plates.htm. All drugs and investigational agents were tested over a range starting from a high concentration at or near the clinical Cmax and decreasing in half-log increments. If the clinical Cmax for an agent had not been determined, the highest concentration tested was 10 microM.
Cell Lines. The patient-derived cancer cell (PDC) lines: 292921-168-R-J2-PDC, K24384-001-R-PDC, and 521955-158-R2-J5-PDC pancreatic carcinomas, 556581-035-R-J1 ovarian carcinoma, 324938-238-R-J1-PDC, 855422-203-R-J1-PDC and 883617-216-R-J1-PDC urothelial bladder carcinomas, 743489-274-T-PDC renal cell carcinoma, 138582-R-J1 Merkel cell tumor, K60290-347-R-J1 and K57222-313-R-J1-PDC glioblastomas, 653999-131-R-J2-PDC, LG0703-F948-PDC, and 349418-098-R-PDC non-small cell lung carcinomas, 885512-296-R-J2-PDC, 171881-019-R-J1-PDC breast carcinomas and 186277-243-T-J2-PDC and 233499-124-R-J2-PDC colon carcinomas were obtained from the NCI Patient-Derived Models Repository (PDMR, https://pdmr.cancer.gov). The established cell lines NCI/ADR-RES (RRID:CVCL_14520 and OVCAR-5 (RRID:CVCL_1628) ovarian carcinomas, 786-O (RRID:CVCL_1051) and A498 […] renal cell carcinoma, NCI-H211 (ATCC, cat. CRL-5824; RRID:CVCL_1529), NCI-H196 (ATCC, cat. CRL-5823, RRID:CVCL_1509), SW 1271 (ATCC, cat. CRL-2177, RRID:CVCL_1716) and NCI-H1876 (ATCC, cat. CRL-5902, RRID:CVCL_1503) small cell lung carcinomas, MDA-MB-231 (RRID:CVCL_0062) and MDA-MB-468 (RRID:CVCL_0419)breast carcinomas (10-12). Pooled donor human umbilical vein endothelial cells (HUVEC, Lonza, cat. CC-2519) and human mesenchymal stem cells (hMSC, Lonza, cat. PT-2501) were purchased from Lonza (Walkersville, MD).
Cell Culture. All cells were maintained in an incubator at 37 degrees C and 5% CO2 with 95% humidity. The PDC lines were cultured according to standard operating procedures established by the NCI PDMR (https://pdmr.cancer.gov). Briefly all PDCs were thawed and cultured in Matrigel-coated flasks prepared with a working solution of 1X Ham's F-12 nutrient mix, without supplementation (Invitrogen, Waltham, MA, cat. 11765054), 100 U/mL penicillin-streptomycin (Invitrogen, cat. 15140122), and 2.5% Matrigel (Corning Inc., Corning, NY, cat. 354248) for the first three passages. […]

How did the IC50 (second compound 0.1 µM) turn out when `O=C(C=Cn1cnc(-c2cc(C(F)(F)F)cc(C(F)(F)F)c2)n1)NNc1cnccn1` + NC1CCC(NC2CC2c2ccccc2)CC1 was run?
The IC50 was 235 nM.

What about the IC50 (second compound 0.316 µM) of the same compound?
Its IC50 is 215 nM.

And the IC50 (second compound 1 µM)?
The IC50 was > 1000 nM.

What about the IC50 (second compound 3.16 µM) of the same compound?
The IC50 was 705 nM.

What about the IC50 (second compound 10 µM) of the same compound?
The IC50 was 312 nM.

What about the viability, T/C (second compound 0.1 µM, first compound 0.00316 µM) of the same compound?
Its viability, T/C is 97.6%.

And the viability, T/C (second compound 0.1 µM, first compound 0.01 µM)?
The viability, T/C was 88.2%.

What about the viability, T/C (second compound 0.1 µM, first compound 0.0316 µM) of the same compound?
Its viability, T/C is 67.2%.

What about the viability, T/C (second compound 0.1 µM, first compound 0.1 µM) of the same compound?
The viability, T/C was 55%.

What about the viability, T/C (second compound 0.1 µM, first compound 0.316 µM) of the same compound?
The viability, T/C was 50.3%.

And the viability, T/C (second compound 0.1 µM, first compound 1 µM)?
Its viability, T/C is 44.9%.

What about the viability, T/C (second compound 0.316 µM, first compound 0.00316 µM) of the same compound?
Its viability, T/C is 104%.

And the viability, T/C (second compound 0.316 µM, first compound 0.01 µM)?
Its viability, T/C is 85.8%.

What about the viability, T/C (second compound 0.316 µM, first compound 0.0316 µM) of the same compound?
Its viability, T/C is 69.6%.

What about the viability, T/C (second compound 0.316 µM, first compound 0.1 µM) of the same compound?
The viability, T/C was 51%.

What about the viability, T/C (second compound 0.316 µM, first compound 0.316 µM) of the same compound?
The viability, T/C was 49.6%.

And the viability, T/C (second compound 0.316 µM, first compound 1 µM)?
The viability, T/C was 45.7%.

And the viability, T/C (second compound 1 µM, first compound 0.00316 µM)?
The viability, T/C was 88.4%.

What about the viability, T/C (second compound 1 µM, first compound 0.01 µM) of the same compound?
The viability, T/C was 84.1%.

What about the viability, T/C (second compound 1 µM, first compound 0.0316 µM) of the same compound?
Its viability, T/C is 68.8%.

And the viability, T/C (second compound 1 µM, first compound 0.1 µM)?
Its viability, T/C is 59.4%.

And the viability, T/C (second compound 1 µM, first compound 0.316 µM)?
The viability, T/C was 54.5%.

And the viability, T/C (second compound 1 µM, first compound 1 µM)?
The viability, T/C was 50.3%.

And the viability, T/C (second compound 3.16 µM, first compound 0.00316 µM)?
Its viability, T/C is 97.9%.

And the viability, T/C (second compound 3.16 µM, first compound 0.01 µM)?
The viability, T/C was 88.1%.

And the viability, T/C (second compound 3.16 µM, first compound 0.0316 µM)?
The viability, T/C was 74.4%.

And the viability, T/C (second compound 3.16 µM, first compound 0.1 µM)?
The viability, T/C was 60%.

And the viability, T/C (second compound 3.16 µM, first compound 0.316 µM)?
Its viability, T/C is 57.2%.

And the viability, T/C (second compound 3.16 µM, first compound 1 µM)?
The viability, T/C was 46.9%.

And the viability, T/C (second compound 10 µM, first compound 0.00316 µM)?
Its viability, T/C is 83.6%.

And the viability, T/C (second compound 10 µM, first compound 0.01 µM)?
The viability, T/C was 84.7%.

What about the viability, T/C (second compound 10 µM, first compound 0.0316 µM) of the same compound?
The viability, T/C was 70.6%.

What about the viability, T/C (second compound 10 µM, first compound 0.1 µM) of the same compound?
Its viability, T/C is 59.8%.

What about the viability, T/C (second compound 10 µM, first compound 0.316 µM) of the same compound?
The viability, T/C was 50%.

What about the viability, T/C (second compound 10 µM, first compound 1 µM) of the same compound?
The viability, T/C was 46.3%.

`Nc1ncn(C2CC(O)C(CO)S2)c(=O)n1` (stereo not given) + NC1CCC(NC2CC2c2ccccc2)CC1 was tested. Which IC50 (second compound 0.1 µM) did it give?
The IC50 was > 300 nM.

And the IC50 (second compound 0.316 µM)?
The IC50 was > 300 nM.

And the IC50 (second compound 1 µM)?
Its IC50 is > 300 nM.

And the IC50 (second compound 3.16 µM)?
Its IC50 is > 300 nM.

And the IC50 (second compound 10 µM)?
The IC50 was > 300 nM.

What about the viability, T/C (second compound 0.1 µM, first compound 0.000949 µM) of the same compound?
Its viability, T/C is 119%.

What about the viability, T/C (second compound 0.1 µM, first compound 0.003 µM) of the same compound?
The viability, T/C was 104%.

And the viability, T/C (second compound 0.1 µM, first compound 0.00949 µM)?
Its viability, T/C is 111%.

And the viability, T/C (second compound 0.1 µM, first compound 0.03 µM)?
Its viability, T/C is 99.6%.

And the viability, T/C (second compound 0.1 µM, first compound 0.0949 µM)?
Its viability, T/C is 92.2%.

What about the viability, T/C (second compound 0.1 µM, first compound 0.3 µM) of the same compound?
The viability, T/C was 77%.

And the viability, T/C (second compound 0.316 µM, first compound 0.000949 µM)?
The viability, T/C was 112%.

And the viability, T/C (second compound 0.316 µM, first compound 0.003 µM)?
Its viability, T/C is 102%.

What about the viability, T/C (second compound 0.316 µM, first compound 0.00949 µM) of the same compound?
The viability, T/C was 105%.

What about the viability, T/C (second compound 0.316 µM, first compound 0.03 µM) of the same compound?
The viability, T/C was 94.6%.

And the viability, T/C (second compound 0.316 µM, first compound 0.0949 µM)?
Its viability, T/C is 93.4%.

And the viability, T/C (second compound 0.316 µM, first compound 0.3 µM)?
Its viability, T/C is 80.2%.

And the viability, T/C (second compound 1 µM, first compound 0.000949 µM)?
The viability, T/C was 102%.

And the viability, T/C (second compound 1 µM, first compound 0.003 µM)?
The viability, T/C was 99.5%.

What about the viability, T/C (second compound 1 µM, first compound 0.00949 µM) of the same compound?
The viability, T/C was 101%.

What about the viability, T/C (second compound 1 µM, first compound 0.03 µM) of the same compound?
Its viability, T/C is 89.8%.

And the viability, T/C (second compound 1 µM, first compound 0.0949 µM)?
Its viability, T/C is 93.9%.

And the viability, T/C (second compound 1 µM, first compound 0.3 µM)?
The viability, T/C was 80.5%.

And the viability, T/C (second compound 3.16 µM, first compound 0.000949 µM)?
Its viability, T/C is 92%.

And the viability, T/C (second compound 3.16 µM, first compound 0.003 µM)?
Its viability, T/C is 101%.

What about the viability, T/C (second compound 3.16 µM, first compound 0.00949 µM) of the same compound?
The viability, T/C was 94.1%.

What about the viability, T/C (second compound 3.16 µM, first compound 0.03 µM) of the same compound?
The viability, T/C was 96.9%.

And the viability, T/C (second compound 3.16 µM, first compound 0.0949 µM)?
Its viability, T/C is 89%.

And the viability, T/C (second compound 3.16 µM, first compound 0.3 µM)?
Its viability, T/C is 75.8%.

And the viability, T/C (second compound 10 µM, first compound 0.000949 µM)?
The viability, T/C was 91%.

What about the viability, T/C (second compound 10 µM, first compound 0.003 µM) of the same compound?
Its viability, T/C is 81.9%.

And the viability, T/C (second compound 10 µM, first compound 0.00949 µM)?
The viability, T/C was 85.9%.

And the viability, T/C (second compound 10 µM, first compound 0.03 µM)?
Its viability, T/C is 83.7%.

And the viability, T/C (second compound 10 µM, first compound 0.0949 µM)?
Its viability, T/C is 82.7%.

What about the viability, T/C (second compound 10 µM, first compound 0.3 µM) of the same compound?
Its viability, T/C is 71%.
